# In publication PMC10279920, “Single-molecule visualization of Pif1 helicase translocation on single-stranded DNA” (The Journal of Biological Chemistry, 2023):
# Substitutions are numbered along the chain they refer to.
# How the values were obtained:
# Assay in all cases: ATP hydrolysis, [γ-32P]-ATP TLC, Michaelis-Menten fit
# Assay type in all cases: biochemical
# Conditions in all cases: M13 ssDNA 1.5 μM nt, 10 nM Pif1, 5 mM MgCl2, 60 mM KCl, pH 7.5, 30 °C, no RPA; labelled compound as tracer
# GFP-Pif1 [1] = target: T1, GFP-Pif1 (Saccharomyces cerevisiae, UniProt P07271, E724A)
# T1 construct: N-terminal superfolder GFP fusion of nuclear isoform residues 40-859, pRSF-Duet-1, E. coli Rosetta2(DE3), Ni-NTA purified
# T1 sequence (P07271 40-859 E724A): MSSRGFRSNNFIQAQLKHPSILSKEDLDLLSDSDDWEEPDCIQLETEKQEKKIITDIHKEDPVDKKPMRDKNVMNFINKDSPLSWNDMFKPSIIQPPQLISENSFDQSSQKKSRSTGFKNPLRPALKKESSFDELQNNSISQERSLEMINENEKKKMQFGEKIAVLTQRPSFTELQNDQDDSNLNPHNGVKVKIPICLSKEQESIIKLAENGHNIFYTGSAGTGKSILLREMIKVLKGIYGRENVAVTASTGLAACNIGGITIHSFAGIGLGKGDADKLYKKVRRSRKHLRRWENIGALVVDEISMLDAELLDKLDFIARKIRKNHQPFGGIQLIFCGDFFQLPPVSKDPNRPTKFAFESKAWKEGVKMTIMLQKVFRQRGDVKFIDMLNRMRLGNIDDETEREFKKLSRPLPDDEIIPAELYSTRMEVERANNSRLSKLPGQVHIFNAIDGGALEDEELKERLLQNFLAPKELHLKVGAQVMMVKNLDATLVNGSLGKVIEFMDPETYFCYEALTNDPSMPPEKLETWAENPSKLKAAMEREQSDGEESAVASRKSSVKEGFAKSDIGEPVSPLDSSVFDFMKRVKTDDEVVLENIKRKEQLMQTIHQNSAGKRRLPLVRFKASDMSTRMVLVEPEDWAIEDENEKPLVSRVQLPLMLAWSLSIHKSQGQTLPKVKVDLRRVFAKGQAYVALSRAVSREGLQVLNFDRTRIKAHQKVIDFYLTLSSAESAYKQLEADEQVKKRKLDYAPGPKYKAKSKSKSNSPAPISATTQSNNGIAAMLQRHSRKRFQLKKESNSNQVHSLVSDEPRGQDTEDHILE
# Protocol: (§1) ATP hydrolysis, [γ-32P]-ATP TLC, Michaelis-Menten fit on GFP-Pif1 | each of the mutant proteins was tested for ATPase activity
# GFP-Pif1 [2] = target: T2, GFP-Pif1 (Saccharomyces cerevisiae, UniProt P07271, H303A)
# T2 construct: N-terminal superfolder GFP fusion of nuclear isoform residues 40-859, pRSF-Duet-1, E. coli Rosetta2(DE3), Ni-NTA purified
# T2 sequence (P07271 40-859 H303A): T1 sequence (P07271 40-859 E724A) with H264A, A685E
# Protocol: as §1
# GFP-Pif1 [3] = target: T3, GFP-Pif1 (Saccharomyces cerevisiae, UniProt P07271, L310A)
# T3 construct: N-terminal superfolder GFP fusion of nuclear isoform residues 40-859, pRSF-Duet-1, E. coli Rosetta2(DE3), Ni-NTA purified
# T3 sequence (P07271 40-859 L310A): T1 sequence (P07271 40-859 E724A) with L271A, A685E
# Protocol: as §1
structure (smiles),measurement,setting,value
Nc1ncnc2c1ncn2[C@@H]1O[C@H](COP(=O)(O)OP(=O)(O)OP(=O)(O)O)[C@@H](O)[C@H]1O [ATP],Km,GFP-Pif1 [1],1470 ± 1370 µM
same,Km,GFP-Pif1 [2],870 ± 1320 µM
same,Km,GFP-Pif1 [3],650 ± 630 µM
